Experimental data published in article PMC3118852 (Chemical research in toxicology, 2011).

Tests used:
human AChE = human AChE (Homo sapiens, UniProt P22303); format: biochemical
CBDP-phosphonylated BChE = CBDP-phosphonylated BChE (Homo sapiens, UniProt P06276); format: biochemical; settings: pH 8
CBDP-phosphonylated AChE = CBDP-phosphonylated AChE (Homo sapiens, UniProt P22303); format: biochemical; settings: pH 8
human BChE [1] = target: T1, human BChE (Homo sapiens, UniProt P06276)
[2] = pH 8
rat brain AChE = settings: pH 7.4; cited from earlier work
recombinant human AChE = settings: pH 8; cited from earlier work
human BChE [3] = target: T1, human BChE; settings: pH 8; cited from earlier work
paraoxonase 1 = settings: cited from earlier work
BChE = settings: cited from earlier work

T1 sequence (P06276 29-602): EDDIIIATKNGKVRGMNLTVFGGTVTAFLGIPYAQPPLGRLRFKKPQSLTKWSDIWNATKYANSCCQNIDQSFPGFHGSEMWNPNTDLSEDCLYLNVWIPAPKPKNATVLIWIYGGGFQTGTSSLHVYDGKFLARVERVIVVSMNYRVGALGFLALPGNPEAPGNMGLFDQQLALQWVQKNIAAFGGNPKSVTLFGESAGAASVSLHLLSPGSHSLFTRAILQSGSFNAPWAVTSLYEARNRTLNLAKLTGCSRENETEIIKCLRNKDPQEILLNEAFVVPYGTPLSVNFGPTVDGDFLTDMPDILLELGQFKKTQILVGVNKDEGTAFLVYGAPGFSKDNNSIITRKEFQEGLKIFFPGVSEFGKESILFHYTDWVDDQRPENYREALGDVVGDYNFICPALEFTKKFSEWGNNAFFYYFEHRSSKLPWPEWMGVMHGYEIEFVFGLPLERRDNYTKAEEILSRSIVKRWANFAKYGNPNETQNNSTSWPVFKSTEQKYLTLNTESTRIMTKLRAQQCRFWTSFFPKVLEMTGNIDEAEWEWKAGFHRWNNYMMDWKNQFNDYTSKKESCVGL
Chain of human AChE (P22303 32-614): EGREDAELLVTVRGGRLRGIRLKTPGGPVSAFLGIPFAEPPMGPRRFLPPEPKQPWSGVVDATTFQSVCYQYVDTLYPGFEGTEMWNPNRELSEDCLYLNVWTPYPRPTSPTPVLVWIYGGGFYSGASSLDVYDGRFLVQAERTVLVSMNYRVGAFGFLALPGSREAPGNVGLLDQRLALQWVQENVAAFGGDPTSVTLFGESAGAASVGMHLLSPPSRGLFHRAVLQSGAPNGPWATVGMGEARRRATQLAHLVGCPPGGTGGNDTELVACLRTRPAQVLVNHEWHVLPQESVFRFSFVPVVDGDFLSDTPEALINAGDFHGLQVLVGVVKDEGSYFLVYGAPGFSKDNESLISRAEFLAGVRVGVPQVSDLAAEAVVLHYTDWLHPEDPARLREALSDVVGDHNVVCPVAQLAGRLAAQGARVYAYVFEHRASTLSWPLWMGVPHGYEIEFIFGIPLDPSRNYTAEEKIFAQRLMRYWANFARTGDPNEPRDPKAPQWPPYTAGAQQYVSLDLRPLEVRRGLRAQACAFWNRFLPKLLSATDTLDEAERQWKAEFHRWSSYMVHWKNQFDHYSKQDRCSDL
Chain of CBDP-phosphonylated BChE (P06276 29-602): as the sequence (P06276 29-602) above
Chain of CBDP-phosphonylated AChE (P22303 32-614): as the sequence (P22303 32-614) above

Compound	K'I, dissociation constant of the Michaelis complex, AChE form E′ (human AChE)	kobs, fast phase of inhibition (independent of CBDP concentration) (human AChE)	Ki (human AChE; read-out: KI, dissociation constant of the Michaelis complex, AChE form E)	time to loss of reactivatibility (aging) following inhibition (CBDP-phosphonylated BChE)	time to loss of reactivatibility (aging) following inhibition (CBDP-phosphonylated AChE)	K'I, dissociation constant of the Michaelis complex, BChE form E′ (human BChE [1])	ki values for BChE (both forms) (human BChE [1])	slow phase reactivity of hBChE (form E′) relative to hAChE (form E′) (human BChE [1])	kp, phosphorylation rate constant, BChE form E (kp=ki.KI) (human BChE [1]; human)	Ki (human BChE [1]; read-out: KI, dissociation constant of the Michaelis complex, BChE form E)	hydrolysis rate [2]	bimolecular rate constant of inhibition (rat brain AChE)	bimolecular rate constant of inhibition (recombinant human AChE)	bimolecular rate constant of inhibition (human BChE [3])	reaction with paraoxonase 1 (paraoxonase 1)	ki, reactivity with BChE (BChE)
Cc1ccccc1OP1(=O)OCc2ccccc2O1 (centres unmarked) [CBDP, 2-(o-cresyl)-4H-1,3,2-benzodioxaphosphoran-2-one]	> 5.5 µM	0.37 ± 0.15 min⁻¹	< 100 nM	less than 15 s	less than 15 s	> 10 nM	10^7–10^8 M^−1 min^−1	235±110 fold	> 1.5 min⁻¹	> 10 nM	0.0126 min⁻¹	18.3 M⁻¹ s⁻¹	35 M⁻¹ s⁻¹	330 M⁻¹ s⁻¹	does not react	–
CCOP(=O)(OCC)Oc1cc(C)nc(C(C)C)n1 [diazoxon]	–	–	–	–	–	–	–	–	–	–	–	–	–	–	–	1.28e+06 M⁻¹ s⁻¹
chlorpyrifos-oxon	–	–	–	–	–	–	–	–	–	–	–	–	–	–	–	2.83e+07 M⁻¹ s⁻¹
